ChEMBL document CHEMBL2380192, “Structure-activity relationship of potent antimicrobial peptide analogs of Ixosin-B amide” (Bioorg Med Chem Lett, 2013)
Converted amounts (≈) assume the structure as drawn. The source made the active and inactive calls. No cut-off for these calls is given here.

How the values were obtained:
[1] = Toxicity against human RBCs assessed as hemolysis at 100 uM after 1 hr by spectrophotometry; format: cell-based, Erythrocyte; details: red blood cells (RBCs), read-out: Activity
Pseudomonas aeruginosa = experiment: Antimicrobial activity against Pseudomonas aeruginosa ATCC 27853 after 18 to 20 hrs by macrobroth dilution method; format: functional
Staphylococcus aureus = experiment: Antimicrobial activity against Staphylococcus aureus ATCC 25923 after 18 to 20 hrs by macrobroth dilution method; format: functional
Escherichia coli [2] = experiment: Antimicrobial activity against Escherichia coli ATCC 25922 after 18 to 20 hrs by macrobroth dilution method; format: functional
Escherichia coli [3] = experiment: Induction of inner membrane permeabilization in Escherichia coli ML-35p at 1 uM measured every 2 mins by beta-galactosidase/ONPG hydrolysis assay; format: functional, organism-based
Escherichia coli [4] = experiment: Induction of outer membrane permeabilization in Escherichia coli ML-35p at 1 uM measured every 2 mins by beta-lactamase/nitrocefin hydrolysis assay; format: functional, organism-based
Escherichia coli [5] = experiment: Induction of outer membrane permeabilization in Escherichia coli ML-35p at 40 to 100 uM measured every 2 mins by beta-lactamase/nitrocefin hydrolysis assay; format: functional, organism-based
Escherichia coli [6] = experiment: Induction of inner membrane permeabilization in Escherichia coli ML-35p at 10 to 100 uM measured every 2 mins by beta-galactosidase/ONPG hydrolysis assay; format: functional, organism-based
Escherichia coli [7] = experiment: Induction of outer membrane permeabilization in Escherichia coli ML-35p at 10 to 20 uM measured every 2 mins by beta-lactamase/nitrocefin hydrolysis assay; format: functional, organism-based

Which results are given for H-WKSDVRRWRSRY-OH?
hemolysis at 1 h, 100 µM [1]: 0.3%; MIC90 (Pseudomonas aeruginosa): > 100 µM; MIC90 (Staphylococcus aureus): > 100 µM; MIC90 (Escherichia coli [2]): 64 µM

With H-WKSYVRRWRS-OH as the molecule, how does the hemolysis at 1 h, 100 µM [1] read?
The hemolysis at 1 h, 100 µM was -0.4%.

What about the MIC90 (Pseudomonas aeruginosa) of the same molecule?
Its MIC90 is over 100 µM.

And the MIC90 (Staphylococcus aureus)?
Its MIC90 is over 100 µM.

And the MIC90 (Escherichia coli [2])?
Its MIC90 is 64 µM.

Which hemolysis at 1 h, 100 µM [1] does the source give for H-KKSYVRRWRS-OH here?
Its hemolysis at 1 h, 100 µM is -0.6%.

What about the MIC90 (Pseudomonas aeruginosa) of the same molecule?
Its MIC90 is over 100 µM.

What about the MIC90 (Staphylococcus aureus) of the same molecule?
Its MIC90 is over 100 µM.

And the MIC90 (Escherichia coli [2])?
Its MIC90 is over 100 µM.

For H-WKSYVRRWRSR-OH, which hemolysis at 1 h, 100 µM [1] is on record?
Its hemolysis at 1 h, 100 µM is -1.2%.

What about the MIC90 (Pseudomonas aeruginosa) of the same molecule?
Its MIC90 is over 100 µM.

What about the MIC90 (Staphylococcus aureus) of the same molecule?
The MIC90 was 32 µM.

What about the MIC90 (Escherichia coli [2]) of the same molecule?
The MIC90 was 16 µM.

For H-WKSYVRRW-OH, which hemolysis at 1 h, 100 µM [1] is on record?
The hemolysis at 1 h, 100 µM was 2%.

What about the MIC90 (Pseudomonas aeruginosa) of the same molecule?
The MIC90 was over 100 µM.

And the MIC90 (Staphylococcus aureus)?
The MIC90 was 100 µM.

And the MIC90 (Escherichia coli [2])?
Its MIC90 is 64 µM.

For H-SGIQPEQHSS-OH, which MIC90 (Pseudomonas aeruginosa) is on record?
Its MIC90 is over 100 µM.

What about the MIC90 (Staphylococcus aureus) of the same molecule?
Its MIC90 is over 100 µM.

And the MIC90 (Escherichia coli [2])?
The MIC90 was over 100 µM.

With H-GKSDVRRWRSRY-OH as the molecule, how does the MIC90 (Pseudomonas aeruginosa) read?
The MIC90 was over 100 µM.

And the MIC90 (Staphylococcus aureus)?
The MIC90 was over 100 µM.

What about the MIC90 (Escherichia coli [2]) of the same molecule?
The MIC90 was over 100 µM.

For H-WKSYVRRWR-OH, which hemolysis at 1 h, 100 µM [1] is on record?
Its hemolysis at 1 h, 100 µM is 1.1%.

What about the MIC90 (Pseudomonas aeruginosa) of the same molecule?
Its MIC90 is over 100 µM.

And the MIC90 (Staphylococcus aureus)?
The MIC90 was 64 µM.

And the MIC90 (Escherichia coli [2])?
Its MIC90 is 64 µM.

With H-WWSYVRRWRSR-OH as the molecule, how does the Activity (Escherichia coli [3]) read?
Its Activity is “inactive”.

And the Activity (Escherichia coli [4])?
The Activity was “inactive”.

And the Activity (Escherichia coli [5])?
Its Activity is “Active”.

What about the Activity (Escherichia coli [6]) of the same molecule?
Its Activity is “Active”.

What about the Activity (Escherichia coli [7]) of the same molecule?
The Activity was “Active”.

And the hemolysis at 1 h, 100 µM [1]?
The hemolysis at 1 h, 100 µM was 3.4%.

What about the MIC90 (Pseudomonas aeruginosa) of the same molecule?
The MIC90 was over 100 µM.

What about the MIC90 (Staphylococcus aureus) of the same molecule?
The MIC90 was 8 µM.

What about the MIC90 (Escherichia coli [2]) of the same molecule?
The MIC90 was 16 µM.

With GENTAMICIN as the molecule, how does the MIC90 (Pseudomonas aeruginosa) read?
Its MIC90 is 0.35 µM.

And the MIC90 (Staphylococcus aureus)?
Its MIC90 is 0.1 µM.

What about the MIC90 (Escherichia coli [2]) of the same molecule?
The MIC90 was 1 µM.

For “H-QLKVDLWGTRSGIQPEQHSSGKSDVRRWRSRY-NH2 [Ixosin-B-amide]”, which MIC90 (Pseudomonas aeruginosa) is on record?
The MIC90 was over 100 µM.

And the MIC90 (Staphylococcus aureus)?
Its MIC90 is over 100 µM.

What about the MIC90 (Escherichia coli [2]) of the same molecule?
The MIC90 was 80 µM.

Which MIC90 (Pseudomonas aeruginosa) does the source give for H-EQHSSGKSDV-OH here?
Its MIC90 is over 100 µM.

And the MIC90 (Staphylococcus aureus)?
The MIC90 was over 100 µM.

And the MIC90 (Escherichia coli [2])?
The MIC90 was over 100 µM.

For H-QLKVDLWGTR-OH, which MIC90 (Pseudomonas aeruginosa) is on record?
The MIC90 was over 100 µM.

And the MIC90 (Staphylococcus aureus)?
Its MIC90 is over 100 µM.

And the MIC90 (Escherichia coli [2])?
Its MIC90 is over 100 µM.

Which hemolysis at 1 h, 100 µM [1] does the source give for H-WKSYVRRWRSRY-OH here?
The hemolysis at 1 h, 100 µM was 1.5%.

What about the MIC90 (Pseudomonas aeruginosa) of the same molecule?
The MIC90 was 100 µM.

What about the MIC90 (Staphylococcus aureus) of the same molecule?
The MIC90 was 32 µM.

What about the MIC90 (Escherichia coli [2]) of the same molecule?
The MIC90 was 16 µM.

With `CC1(C)S[C@@H]2[C@H](NC(=O)Cc3ccccc3)C(=O)N2[C@H]1C(=O)O` [PENICILLIN G] as the molecule, how does the MIC90 (Pseudomonas aeruginosa) read?
The MIC90 was over 100 µM.

And the MIC90 (Staphylococcus aureus)?
Its MIC90 is 0.125 µM (≈ 0.0418 µg/mL).

And the MIC90 (Escherichia coli [2])?
The MIC90 was over 100 µM.

With H-LWGTRSGIQP-OH as the molecule, how does the MIC90 (Pseudomonas aeruginosa) read?
Its MIC90 is over 100 µM.

What about the MIC90 (Staphylococcus aureus) of the same molecule?
Its MIC90 is over 100 µM.

What about the MIC90 (Escherichia coli [2]) of the same molecule?
The MIC90 was over 100 µM.
